Data on 18 molecules can be found in patent US20250320205A1, “STAT6 DEGRADERS” (Gilead Sciences, Inc., priority 2024, published 2025).

This assay deals with T1, STAT6 (Homo sapiens, UniProt P42226).
T1 construct: These cells express endogenous STAT6; host or cells: HeLa LgBiT clone 4.14 (CRISPR knock-in of HiBiT into the endogenous STAT6 gene)
T1 sequence (P42226 1-847): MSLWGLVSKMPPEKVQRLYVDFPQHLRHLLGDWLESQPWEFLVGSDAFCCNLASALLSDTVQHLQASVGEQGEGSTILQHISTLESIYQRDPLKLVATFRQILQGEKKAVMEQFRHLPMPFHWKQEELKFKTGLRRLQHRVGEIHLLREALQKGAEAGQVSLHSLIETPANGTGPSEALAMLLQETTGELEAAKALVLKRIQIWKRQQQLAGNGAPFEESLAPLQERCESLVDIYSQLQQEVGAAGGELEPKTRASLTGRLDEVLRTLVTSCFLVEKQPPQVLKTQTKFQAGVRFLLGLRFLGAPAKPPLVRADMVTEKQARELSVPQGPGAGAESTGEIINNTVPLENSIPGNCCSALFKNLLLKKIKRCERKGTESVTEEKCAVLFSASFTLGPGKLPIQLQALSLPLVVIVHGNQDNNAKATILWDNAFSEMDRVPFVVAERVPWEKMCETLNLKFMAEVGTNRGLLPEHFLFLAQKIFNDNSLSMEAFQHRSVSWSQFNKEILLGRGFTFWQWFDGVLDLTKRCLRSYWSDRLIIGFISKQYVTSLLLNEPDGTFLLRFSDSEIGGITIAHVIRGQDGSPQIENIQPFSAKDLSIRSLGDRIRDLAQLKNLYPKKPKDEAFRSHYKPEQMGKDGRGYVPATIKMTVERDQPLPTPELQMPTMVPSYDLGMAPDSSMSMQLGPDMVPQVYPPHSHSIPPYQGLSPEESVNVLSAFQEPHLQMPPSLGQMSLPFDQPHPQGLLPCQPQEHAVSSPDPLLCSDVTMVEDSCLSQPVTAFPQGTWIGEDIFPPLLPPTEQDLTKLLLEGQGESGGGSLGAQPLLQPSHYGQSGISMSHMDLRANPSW
Briefly: STAT6 Degrader Assay (HiBiT based, HeLa LgBiT clone 4.14 cells). The format is cell-based. The settings on record: for Emax: HeLa, maximal STAT6 degradation; for DC50: geometric mean across assay runs and compound batches, DC50 provided for test compounds with >80% Emax, read-out: STAT6 degradation DC50. The procedure: This was a HiBit based assay. A HeLa cell line stably transfected with a small protein, LgBit (Large Bit) was obtained from Promega. These cells express endogenous STAT6. A small 11 amino acid gene sequence (HiBiT) was inserted in the STAT6 gene using CRISPR technology. Once STAT6 protein is expressed in the cells, the HiBiT sequence will bind the LgBit in the cells resulting in a functional NanoBiT protein, giving a luminescent tag to STAT6. Single cell clones were prepared and the clone 4.14 was selected for the assay based on that clone showing high luminescence, high STAT6 phosphorylation upon stimulation with IL-4, and inhibition of luminescence when cells were treated with STAT6 siRNA. HeLa LgBiT clone 4.14 cells were suspended in DMEM with 10% FCS, 1% Pen/Strep, Na-pyrovate and Hygromycin B, at a concentration of 1.25*105 cells pr mL. 5000 cells were added pr well of a 384 well plate and 20 nL of compound was added by Echo® liquid handler. NN6394A (terfenadine, a toxic compound) was added to control wells at 50 μM concentration to establish the assay window. In these wells the cells are dead which equals 100% degradation of STAT6. After 4-24 h of incubation at 37° C. under 5% CO2/95% air, 5 μL substrate (Nano-GLO®) was added to the wells and the plates were centrifuged and incubated for 0.5 h. The luminescence in the wells as a measure of non-degraded STAT6 was measured in a plate reader (BMG Pherastar FSX). The measured DC50 (in nM) was determined.
In general terms: The HiBiT peptide binds its large partner to form an active luciferase.

On to `CNc1ccn(-c2ccnc3c2cc(CN2CC=C(c4c(C)cc(C(=O)N5CCC(CN6CCN(c7ccc(N[C@@H]8CCC(=O)NC8=O)cc7F)CC6)CC5)cc4F)CC2)n3C)c(=O)c1` (single isomer, unassigned) [Example 2g56], for which the Emax (commonly the greatest response seen or fitted, relative to the assay's reference) was 70 to 80%. For the molecule `CNc1ccn(-c2ccnc3c2cc([C@H](C)N2CCC(c4c(C)cc(C(=O)N5CCC(CN6CCN(c7ccc(N[C@@H]8CCC(=O)NC8=O)cc7F)CC6)CC5)cc4F)CC2)n3C)c(=O)c1` (single isomer, unassigned) [Example 2g44], the DC50 – broadly, the concentration giving 50% degradation – was found to be 12.2 nM. Take `CNc1ccn(-c2ccnc3c2cc(CN2CC=C(c4c(C)cc(C(=O)N5CCC(CN6CCN(c7ccc(NC8CCC(=O)NC8=O)cc7F)CC6)CC5)cc4F)CC2)n3C)c(=O)c1` (stereo not drawn) [Example 2g54, 3-((3-fluoro-4-(4-((1-(3-fluoro-5-methyl-4-(1-((1-methyl-4-(4-(methylamino)-2-oxopyridin-1(2H)-yl)-1H-pyrrolo[2,3-b]pyridin-2-yl)-methyl)-1,2,3,6-tetrahydro-pyridin-4-yl)benzoyl)piperi-din-4-yl)methyl)piperazin-1-yl)phenyl)amino)piperidine-2,6-dione]: the DC50 stood at 7.3 nM. Same read-out and setting: then `Cc1cc(C(=O)N2CCC(CN3CCN(c4ccc(NC5CCC(=O)NC5=O)cc4F)C[C@H]3C)CC2)cc(F)c1C1=CCN([C@@H](C)c2cc3c(-n4ccc5c(c4=O)CCN5)ccnc3n2C)CC1` (stereo partly drawn) [Example 2g22, 3-((3-fluoro-4-((R)-4-((1-(3-fluoro-5-methyl-4-(1-((S)-1-(1-methyl-4-(4-oxo-1,2,3,4-tetrahydro-5H-pyrrolo[3,2-c]pyridin-5-yl)-1H-pyrrolo[2,3-b]pyridin-2-yl)ethyl)-1,2,3,6-tetrahydro-pyridin-4-yl)-benzoyl)piperidin-4-yl)meth-yl)-3-methylpiperazin-1-yl)-phenyl)amino)piperidine-2,6-dione], with 3.3 nM; and `CNc1ccn(-c2ccnc3c2cc(CN2CCC(c4c(C)cc(C(=O)N5CCC(CN6CCN(c7ccc(N[C@@H]8CCC(=O)NC8=O)cc7F)CC6)CC5)cc4F)CC2)n3C)c(=O)c1` (single isomer, unassigned) [Example 2g61], with 14.8 nM. With `Cc1cc(C(=O)N(C)c2ccc(C3CCN(c4ccc(NC5CCC(=O)NC5=O)cc4F)CC3)cc2)cc(F)c1C1=CCN([C@H](C)c2cc3c(-n4ccc5[nH]ccc5c4=O)ccnc3n2C)CC1` (stereo partly drawn) [Example 2g134, N-(4-(1-(4-((2,6-dioxopiper-idin-3-yl)amino)-2-fluoro-phenyl)piperidin-4-yl)phen-yl)-3-fluoro-N,5-dimethyl-4-(1-((R)-1-(1-methyl-4-(4-oxo-1,4-dihydro-5H-pyrrolo[3,2-c]pyridin-5-yl)-1H-pyrrolo [2,3-b]pyridin-2-yl)ethyl)-1,2,3,6-tetrahydropyridin-4-yl)benzamide], the Emax lay in the range of 50 to 60%. Take `CNc1ccn(-c2ccnc3c2cc([C@H](C)N2CC=C(c4c(C)cc(C(=O)N5CCC(CN6CCN(c7ccc(NC8CCC(=O)NC8=O)cc7F)C[C@H]6C)CC5)cc4F)CC2)n3C)c(=O)c1` (stereo partly drawn) [Example 2g46, 3-((3-fluoro-4-((R)-4-((1-(3-fluoro-5-methyl-4-(1-((S)-1-(1-methyl-4-(4-(methyl-amino)-2-oxopyridin-1(2H)-yl)-1H-pyrrolo[2,3-b]pyridin-2-yl)ethyl)-1,2,3,6-tetrahydro-pyridin-4-yl)benzoyl)piperi-din-4-yl)methyl)-3-methyl-piperazin-1-yl)phenyl)amino)-piperidine-2,6-dione]: the DC50 turned out to be 3.1 nM. With `CNc1ccn(-c2ccnc3c2cc(CN2CCC(c4c(C)cc(C(=O)N5CCN(C(=O)CN6CCN(c7ccc(NC8CCC(=O)NC8=O)cc7F)CC6)CC5)cc4F)CC2)n3C)c(=O)c1` (stereo not drawn) [Example 2g132, 3-((3-fluoro-4-(4-(2-(4-(3-fluoro-5-methyl-4-(1-((1-methyl-4-(4-(methylamino)-2-oxopyridin-1(2H)-yl)-1H-pyrrolo[2,3-b]pyridin-2-yl)-methyl)piperidin-4-yl)benzo-yl)piperazin-1-yl)-2-oxo-ethyl)piperazin-1-yl)phenyl)-amino)piperidine-2,6-dione], the Emax was 40 to 50%. `CNc1ccn(-c2ccnc3c2cc([C@H](C)N2CC=C(c4c(C)cc(C(=O)N5CCn6nc(CN7CCC(c8ccc(N[C@H]9CCC(=O)NC9=O)cc8F)CC7)cc6C5)cc4F)CC2)n3C)c(=O)c1` (single isomer, unassigned) [Example 2g16]: the DC50 is 0.2 nM. For the molecule `CNc1ccn(-c2ccnc3c2cc(CN2CCC(c4c(C)cc(C(=O)N5CCC(CN6CCN(c7ccc(N[C@H]8CCC(=O)NC8=O)cc7F)CC6)CC5)cc4F)CC2)n3C)c(=O)c1` (single isomer, unassigned) [Example 2g62], the DC50 amounted to 18 nM. On the same count and under the same terms, then `CNc1cc(=O)n(-c2ccnc3c2cc([C@H](C)N2CC=C(c4c(C)cc(C(=O)N5CCC(CN6CCN(c7ccc(N[C@H]8CCC(=O)NC8=O)cc7F)CC6)CC5)cc4F)CC2)n3C)cc1F` (single isomer, unassigned) [Example 2g92], with 5.9 nM; and `CNc1ccn(-c2ccnc3c2cc([C@H](C)N2CC=C(c4c(C)cc(C(=O)N5CCC(CN6CCN(c7ccc(N[C@@H]8CCC(=O)NC8=O)cc7F)C[C@@H]6C)CC5)cc4F)CC2)n3C)c(=O)c1` (single isomer, unassigned) [Example 2g99], with 22.2 nM. On the same count and under the same terms, in the case of `Cc1cc(C(=O)N2CCC(CN3CCN(c4ccc(N[C@@H]5CCC(=O)NC5=O)cc4F)C[C@H]3C)CC2)cc(F)c1C1=CCN([C@@H](C)c2cc3c(-n4ccc5c(c4=O)CCN5)ccnc3n2C)CC1` (single isomer, unassigned) [Example 2g24] it was 3 nM; in that of `CNc1cc(=O)n(-c2ccnc3c2cc([C@H](C)N2CC=C(c4c(C)cc(C(=O)N5CCC(CN6CCN(c7ccc(N[C@H]8CCC(=O)NC8=O)cc7F)C[C@H]6C)CC5)cc4F)CC2)n3C)cc1F` (single isomer, unassigned) [Example 2g29], 3.6 nM.

In turn, `Cc1cc(C(=O)N2CCC(CN3CCN(c4ncc(NC5CCC(=O)NC5=O)cc4F)CC3)CC2)cc(F)c1C1=CCN([C@@H](C)c2cc3c(-n4ccc5c(c4=O)CCN5)ccnc3n2C)CC1` (stereo partly drawn) [Example 2g49, 3-((5-fluoro-6-(4-((1-(3-fluoro-5-methyl-4-(1-((S)-1-(1-methyl-4-(4-oxo-1,2,3,4-tetrahydro-5H-pyrrolo[3,2-c]pyridin-5-yl)-1H-pyrrolo [2,3-b]pyridin-2-yl)ethyl)-1,2,3,6-tetrahydropyridin-4-yl)benzoyl)piperidin-4-yl)-methyl)piperazin-1-yl)-pyridin-3-yl)amino)piperi-dine-2,6-dione] had an Emax of less than 20%. Take `CNc1ccn(-c2ccnc3c2cc([C@H](C)N2CC=C(c4c(C)cc(C(=O)N5CCC(CN6CCN(c7ncc(N[C@@H]8CCC(=O)NC8=O)cc7F)C[C@@H]6C)CC5)cc4F)CC2)n3C)c(=O)c1` (single isomer, unassigned) [Example 2g96]: the DC50 is 14 nM.

As to `CNc1ccn(-c2ccnc3c2cc([C@H](C)N2CC=C(c4c(C)cc(C(=O)N5CCC(CN6CCN(c7ccc(N[C@H]8CCC(=O)NC8=O)cc7F)C[C@H]6C)CC5)cc4F)CC2)n3C)c(=O)c1` (single isomer, unassigned) [Example 2g48], the DC50 came out at 2.4 nM. `CNc1ccn(-c2ccnc3c2cc([C@H](C)N2CC=C(c4c(C)cc(C(=O)N5CCC(CN6CCN(c7ncc(NC8CCC(=O)NC8=O)cc7F)CC6)CC5)cc4F)CC2)n3C)c(=O)c1` (stereo partly drawn) [Example 2g13, 3-((5-fluoro-6-(4-((1-(3-fluoro-5-methyl-4-(1-((S)-1-(1-methyl-4-(4-(methyl-amino)-2-oxopyridin-1(2H)-yl)-1H-pyrrolo[2,3-b]pyridin-2-yl)ethyl)-1,2,3,6-tetrahydro-pyridin-4-yl)benzoyl)piperi-din-4-yl)methyl)piperazin-1-yl)pyridin-3-yl)amino)piperi-dine-2,6-dione] had an Emax of 20 to 30%.
